Where two headings read alike, the source gives them in different places.
Legend:
[1] = biological target: T1, Drosophila OR47a (Drosophila melanogaster, UniProt P81921); assay: Calcium ion fluorescence (GCaMP6) assay, OR47a stable HEK293 cell line; type: cell-based; details: for OR47a response (VUAA1-normalized) at 1 μM / OR47a response (VUAA1-normalized) at 10 μM / OR47a response (VUAA1-normalized) at 100 μM / Average response: OR47a cell line; for OR47a response (VUAA1-normalized) at 1 μM: VOC concentration 1 μM; for OR47a response (VUAA1-normalized) at 10 μM: VOC concentration 10 μM; for OR47a response (VUAA1-normalized) at 100 μM: VOC concentration 100 μM; for Average response: mean of biological replicates
T1 construct: expressed in transfected cells
T1 sequence (P81921 1-385): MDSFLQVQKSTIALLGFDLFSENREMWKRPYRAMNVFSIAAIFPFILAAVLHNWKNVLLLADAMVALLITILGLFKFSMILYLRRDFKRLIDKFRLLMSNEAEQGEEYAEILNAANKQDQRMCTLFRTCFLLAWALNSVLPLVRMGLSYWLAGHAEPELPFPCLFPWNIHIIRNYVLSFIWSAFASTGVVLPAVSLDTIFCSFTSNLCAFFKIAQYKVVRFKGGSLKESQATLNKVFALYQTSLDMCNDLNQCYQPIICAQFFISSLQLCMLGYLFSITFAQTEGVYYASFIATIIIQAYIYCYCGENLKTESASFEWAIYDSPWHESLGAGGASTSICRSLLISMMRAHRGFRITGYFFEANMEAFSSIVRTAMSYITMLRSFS
T1 sequence (Q9VNB5 1-486 partner): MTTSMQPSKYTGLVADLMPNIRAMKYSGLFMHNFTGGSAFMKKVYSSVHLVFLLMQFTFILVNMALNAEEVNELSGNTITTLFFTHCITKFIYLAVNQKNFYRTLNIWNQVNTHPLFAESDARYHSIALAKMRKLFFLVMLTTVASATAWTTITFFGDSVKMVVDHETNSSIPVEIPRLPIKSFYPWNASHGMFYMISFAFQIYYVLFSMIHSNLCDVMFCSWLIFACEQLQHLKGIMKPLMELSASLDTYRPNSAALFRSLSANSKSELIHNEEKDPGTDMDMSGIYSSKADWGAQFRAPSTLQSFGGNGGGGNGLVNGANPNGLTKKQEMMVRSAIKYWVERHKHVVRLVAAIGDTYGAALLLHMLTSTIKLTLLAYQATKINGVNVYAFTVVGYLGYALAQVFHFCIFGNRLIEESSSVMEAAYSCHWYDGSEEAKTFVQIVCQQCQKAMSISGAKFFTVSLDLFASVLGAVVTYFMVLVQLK
How it was run: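 Responses are VUAA1-normalized ΔF: each VOC-evoked calcium signal, (FMAX−F0)/F0 over 30 s after injection, divided by the same line's mean 50 µM VUAA1 response. Cells were doxycycline-induced HEK293 with GCaMP6 and the cognate Drosophila OR, in HEPES buffer pH 7.3; ligands tested 0.01–100 μM.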

[2] = biological target: T2, Drosophila OR85b (Drosophila melanogaster, UniProt Q9VHQ7); assay: Calcium ion fluorescence (GCaMP6) assay, OR85b stable HEK293 cell line; type: cell-based; details: for OR85b response (VUAA1-normalized) at 1 μM / OR85b response (VUAA1-normalized) at 10 μM / OR85b response (VUAA1-normalized) at 100 μM / Average response: OR85b cell line; for OR85b response (VUAA1-normalized) at 1 μM: VOC concentration 1 μM; for OR85b response (VUAA1-normalized) at 10 μM: VOC concentration 10 μM; for OR85b response (VUAA1-normalized) at 100 μM: VOC concentration 100 μM; for Average response: VUAA1-normalized response, mean of biological replicates
T2 construct: expressed in transfected cells
T2 sequence (Q9VHQ7 1-390): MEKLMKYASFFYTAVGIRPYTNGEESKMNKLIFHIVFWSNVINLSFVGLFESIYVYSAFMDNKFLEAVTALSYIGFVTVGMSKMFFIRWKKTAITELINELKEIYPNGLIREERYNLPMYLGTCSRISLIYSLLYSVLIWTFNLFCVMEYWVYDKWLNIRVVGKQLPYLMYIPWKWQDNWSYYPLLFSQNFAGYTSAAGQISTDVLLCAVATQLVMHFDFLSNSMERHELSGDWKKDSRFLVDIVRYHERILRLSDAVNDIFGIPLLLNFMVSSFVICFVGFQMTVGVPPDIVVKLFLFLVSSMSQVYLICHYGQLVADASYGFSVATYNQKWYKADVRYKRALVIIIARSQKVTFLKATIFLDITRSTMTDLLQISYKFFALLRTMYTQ
T2 sequence (Q9VNB5 1-486 partner): T1 sequence (Q9VNB5 1-486 partner)
Description: These VUAA1 normalized ∆F values were used to compare the different receptors and ligands.
The concentration-dependent effect of the reference ligands on their cognate cell lines was examined in more detail. Twelve different ligand concentrations were measured on each cell line in an overall 0.01 μM to 100 μM concentration range with 5 repetitions with three technical replicates each time.
Twelve thousand to 18,000 cells were plated into each well of a black wall, transparent bottom 384-well microplate (Greiner) 48 h or 72 h before the measurements and were simultaneously treated with 1 μg/mL doxycycline. […] The plate has 24 columns, thus we could record responses in up to eight different cell lines in each plate. On the day of the experiment, the growth medium was replaced with 20 µL assay buffer/well (140 mM NaCl, 5 mM KCl, 2 mM CaCl2, 1 mM MgCl2, 5 mM HEPES-Na, 20 mM glucose, pH 7.3, 340 mOsm). […] Baseline fluorescence (F0) was recorded for 5 s, after which 7 µL VOC buffer (140 mM NaCl, 5 mM KCl, 2 mM CaCl2, 1 mM MgCl2, 5 mM HEPES-Na, 31 mM glucose, 0.1% DMSO, pH 7.3, 340 mOsm) was injected into each well in one row and the fluorescence response was recorded for an additional 30 s, at a rate of one read/sec. VOC solutions (VOC buffer with 4× concentration of the final measured VOC concentration, 9 µL/well was injected) were measured on the same wells in a second round with the same protocol. Each individual concentration of a specific VOC sample was recorded in three wells for the same cell line on the same microplate. The raw data were exported in xls file format, F0 and FMAX values, and the fluorescence intensity changes (∆F) were calculated in Excel (Microsoft) (Supplementary file Data summary.xlsx) using the following equation: ΔF=FMAX-F0/F0 (see also Fig. 1C). On each plate, we recorded the response of each cell line to 50 µM VUAA1. The average of these ∆F values of each cell line were used to calculate the VUAA1-normalized values for the rest of the plate, by dividing VOC response ∆F values by the average VUAA1 response ∆F value of the corresponding OR cell line. Each VOC-OR combination was measured three times as technical replicates. […] The average of these replicates were used as one ∆F and VUAA1-normalized ∆F in the following analysis.
In the next rows we tested the reference VOCs (or other VOCs known to activate the corresponding cell lines), in order to test if all cell lines are responsive. The remaining rows were used to test VOCs with unknown effect.
The recorded FMAX, F0, ∆F, VUAA1-normalized ∆F values, as well as the OR name, the name of the tested sample, and the final concentration for each well were copied into supplementary file Data summary.xlsx, that was used to summarize all the plates recorded. Here, the averages of the measurements were calculated for each receptor-VOC-concentration combination.

[3] = ligand concentration 1 (unit not given), threshold 0.05, below shown as 0
[4] = ligand concentration 10 (unit not given), threshold 0.05, below shown as 0
[5] = ligand concentration 100 (unit not given), threshold 0.05, below shown as 0
[6] = HEK293, read-out: OR47a response (VUAA1-normalized response)
[7] = concentration 1, normalized fluorescence change, values below 0.05 threshold given as 0
[8] = concentration 10, normalized fluorescence change, values below 0.05 threshold given as 0
[9] = concentration 100, normalized fluorescence change, values below 0.05 threshold given as 0
[10] = HEK293, read-out: OR85b Average response (VUAA1-normalized)
[11] = HEK293, read-out: OR85b response (VUAA1-normalized response)
[12] = ligand concentration 1 (unit not given), 0.05 threshold, values below shown as 0
[13] = ligand concentration 10 (unit not given), 0.05 threshold, values below shown as 0
[14] = ligand concentration 100 (unit not given), 0.05 threshold, values below shown as 0

| SMILES | OR47a response (VUAA1-normalized) at 1 μM [1] | OR47a response (VUAA1-normalized) at 10 μM [1] | OR47a response (VUAA1-normalized) at 100 μM [1] | Average response ([1]; odorant cc. 1 µM) | Average response ([1]; odorant cc. 10 µM) | Average response ([1]; odorant cc. 100 µM) | OR85b response (VUAA1-normalized) at 1 μM [2] | OR85b response (VUAA1-normalized) at 10 μM [2] | OR85b response (VUAA1-normalized) at 100 μM [2] | Average response ([2]; cc. 1 µM) | Average response ([2]; cc. 10 µM) | Average response ([2]; cc. 100 µM) | activation at 1 µM [2, 10] | activation at 10 µM [2, 10] | activation at 100 µM [2, 10] | other results |
| --- | --- | --- | --- | --- | --- | --- | --- | --- | --- | --- | --- | --- | --- | --- | --- | --- |
| COC(=O)c1ccccc1 [methyl benzoate] | 0.00 | 0.00 | 0.06 | 0.0138 | 0.00 | 0.06 | 0.00 | 0.00 | 0.00 | 0.00 | 0.00 | 0.00 | – | – | – | DF norm AVERAGE OR47a [1, 3]: 0; DF norm AVERAGE OR47a [1, 4]: 0; DF norm AVERAGE OR47a [1, 5]: 0.05948; DF norm AVERAGE OR85b [2, 3]: 0; DF norm AVERAGE OR85b [2, 4]: 0; DF norm AVERAGE OR85b [2, 5]: 0 |
| Cc1ccc(C)c(C)c1 [1,2,4-trimethylbenzene] | – | – | – | 0.00 | 0.00 | 0.00 | – | – | – | 0.0436 | 0.0741 | 0.12 | 4% | 7% | 12% | activation at 1 µM [1, 6]: 0%; activation at 10 µM [1, 6]: 0%; activation at 100 µM [1, 6]: 0%; DF norm AVERAGE OR47a [1, 7]: 0; DF norm AVERAGE OR47a [1, 8]: 0; DF norm AVERAGE OR47a [1, 9]: 0; activation at 1 µM [2, 11]: 0%; activation at 10 µM [2, 11]: 7.41%; activation at 100 µM [2, 11]: 12%; DF norm AVERAGE OR85b [2, 7]: 0; DF norm AVERAGE OR85b [2, 8]: 0.0741; DF norm AVERAGE OR85b [2, 9]: 0.1212 |
| Cc1ccccc1 [toluene] | 0.00 | 0.00 | 0.00 | 0.00 | 0.0267 | 0.00 | 0.0843 | 0.07 | 0.11 | 0.0843 | 0.07 | 0.11 | 8% | 7% | 11% | DF norm AVERAGE OR47a [1, 12]: 0; DF norm AVERAGE OR47a [1, 13]: 0; DF norm AVERAGE OR47a [1, 14]: 0; DF norm AVERAGE OR85b [2, 12]: 0.08429; DF norm AVERAGE OR85b [2, 13]: 0.067; DF norm AVERAGE OR85b [2, 14]: 0.1125 |
